Assay [1] concerns IL-6 secretion. In words: Cell-based IL-6 quantification assay (ELISA, Mesoscale) in LPS-stimulated THP-1 cells. The conditions noted are these: THP-1 cells, 16 h, read-out: IL6. The essentials: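 THP-1 cells stimulated with LPS at 4 μg/mL final and exposed to compounds for 16 h. Supernatant IL-6 measured by Mesoscale ELISA and normalized to CellTiter-Glo cell content. Percent inhibition derived from that ratio.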

Assay [2] relates to MYC mRNA. The assay is described as follows: cMyc RNA quantification assay (QuantiGene) in Raji cells. It counts as cell-based. The conditions noted are these: Homo sapiens; Table 7; Raji (Burkitt's lymphoma) cells, 4 h. Here is the method:
(§1) MV4:11 (AML) or Raji (Burkitt's lymphoma) cells were seeded in a 96-well plate and incubated in the presence of various concentrations of compounds for 4 h. Relative mRNA levels were quantitated by using QuantiGene 2.0 assay (Affymetrix) according to the manufacturer's recommendation. Signals were detected by using an Envision plate reader (Perkin-Elmer). Biological duplicates were averaged and normalized to vehicle (DMSO) control to calculate percent MYC mRNA levels.

Assay [3] has as its system MYC mRNA. In words: cMyc RNA quantification assay (QuantiGene) in MV4:11 cells. The class given is cell-based. Particulars: read-out: MYC-MV411. The protocol: as §1
In assay [4] the target is T1, BRD4(BD1) (Homo sapiens, UniProt O60885).
T1 construct: His; made in house
The assay is described as follows: BRD4 AlphaLisa binding assay (Alphascreen). Particulars: Table 14; BRD4 AlphaLisa Binding Assay; read-out: Alpha screen. The essentials: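 BRD4(BD1) (30 nM) incubated 20 min at room temperature with peptide (200 nM) and compound in 40 mM HEPES pH 7.0, 40 mM NaCl, 1 mM DTT, 0.01% BSA, 0.008% Brij-35, 1.2% DMSO.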

The mark [5] stands for this setting: Homo sapiens, THP-1, 16 h, Table 14, LPS.
Where [6] appears, read: Homo sapiens, MV4-11, 4 h, Table 14, MV4:11 cells.

The structures appear in SMILES notation. Read-outs that look alike come from different tables or passages of the source.

With `Cc1noc2c1-c1ccnc(F)c1C(c1ccc(Cl)cc1)=N[C@H]2CC(N)=O` [Compound 180, 2-((4S)-6-(4-Chlorophenyl)-7-fluoro-1-methyl-4H-isoxazolo[5,4-c]pyrido[4,3-e]azepin-4-yl)acetamide], the IC50 in assay [1] (Homo sapiens, THP-1, 16 h, Table 7, LPS 4 μg/mL, normalised to CellTiter-Glo) was < 500 nM; in assay [2], 500 to 1000 nM; in assay [3] (Homo sapiens, MV4-11, 4 h, Table 7, MV4:11 (AML) cells) it was 500 to 1000 nM.
`CCOC(=O)NC1N=C(c2ccc(Cl)cc2)c2ccccc2-c2c(C)noc21` (single isomer, unassigned) [Compound 254, Ethyl (6-(4-chlorophenyl)-1-methyl-4H-benzo[c]isoxazolo[4,5-e]azepin-4-yl)carbamate]: the IC50 in assay [4] is 500 to 1000 nM; in assay [1] (Table 14, LPS), > 1000 nM; in assay [3] (Table 14, MV4:11 cells, 4 h), > 1000 nM.
For `Cc1noc2c1-c1ccc(N3CCCC3)nc1C(c1ccc(Cl)cc1)=NC2` [Compound 247, 6-(4-Chlorophenyl)-1-methyl-8-(pyrrolidin-1-yl)-4H-isoxazolo[5,4-c]pyrido[3,2-e]azepine], the IC50 in assay [4] is < 500 nM; in assay [1] (setting [5]) it was < 500 nM; in assay [3] (setting [6]), 500 to 1000 nM.
Take `Cc1noc2c1-c1ccccc1C(c1ccc(F)cc1)=NC2C(F)(F)F` (stereo not drawn) [Compound 238, 6-(4-fluorophenyl)-1-methyl-4-(trifluoromethyl)-4H-benzo[c]isoxazolo[4,5-e]azepine]: the IC50 in assay [4], in assay [1] (setting [5]) and in assay [3] (setting [6]) was > 1000 nM in each case.
Take `CNc1ccc2c(n1)-c1c(C)noc1CN=C2c1ccc(Cl)cc1` [Compound 221, 5-(4-Chlorophenyl)-N,10-dimethyl-7H-isoxazolo[5,4-c]pyrido[2,3-e]azepin-2-amine]: the IC50 in assay [4], in assay [1] (setting [5]) and in assay [3] (setting [6]) was > 1000 nM throughout.
Regarding `Cc1noc2c1-c1cnc(Cl)cc1C(c1ccc(Cl)cc1)=NC2` [Compound 256, 8-Chloro-6-(4-chlorophenyl)-1-methyl-4H-isoxazolo[5,4-c]pyrido[3,4-e]azepine], the IC50 in assay [4], in assay [1] (setting [5]) and in assay [3] (setting [6]) was > 1000 nM each time.
As for `Cc1noc2c1-c1ccccc1C(c1ccc(Cl)cc1)=NC2C#N` (stereo not drawn) [Compound 215, 6-(4-chlorophenyl)-1-methyl-4H-benzo[c]isoxazolo[4,5-e]azepine-4-carbonitrile], the IC50 in assay [4], in assay [1] (setting [5]) and in assay [3] (setting [6]) was > 1000 nM throughout.
Regarding `Cc1noc2c1-c1ccccc1C(c1ccc(Cl)cc1)=N[C@H]2CC(=O)NCCO` [Compound 214], the IC50 in assay [4], in assay [1] (setting [5]) and in assay [3] (setting [6]) was < 500 nM throughout.
Regarding `Cc1noc2c1-c1sc(C)c(C)c1C(c1ccc(C(C)(C)O)cc1)=NC2CC(N)=O` (stereo not drawn) [Compound 236], the IC50 in assay [4], in assay [1] (setting [5]) and in assay [3] (setting [6]) was < 500 nM each time.
On to `COc1ccc2c(c1)C(c1ccc(Cl)cc1)=N[C@@H](CC(N)=O)c1onc(C)c1-2` [Compound 217, 2-((4S)-6-(4-chlorophenyl)-8-methoxy-1-methyl-4H-benzo[c]isoxazolo[4,5-e]azepin-4-yl)acetamide], for which the IC50 in assay [4], in assay [1] (setting [5]) and in assay [3] (setting [6]) was < 500 nM in each case.
In the case of `Cc1noc2c1-c1ccccc1C(c1ccc(C(C)(C)N)cc1)=N[C@H]2CC(N)=O` [Compound 233], the IC50 is < 500 nM in assay [4], 500 to 1000 nM in assay [1] (setting [5]) and 500 to 1000 nM in assay [3] (setting [6]).
On to `CCOc1ccc2c(c1)C(c1ccc(Cl)cc1)=N[C@@H](CC(N)=O)c1onc(C)c1-2` [Compound 248], for which the IC50 in assay [4], in assay [1] (setting [5]) and in assay [3] (setting [6]) was < 500 nM throughout.
For `Cc1noc2c1-c1ccc(O)cc1C(c1ccc(Cl)cc1)=N[C@H]2CC(N)=O` [Compound 239, 2-((4S)-6-(4-chlorophenyl)-8-hydroxy-1-methyl-4H-benzo[c]isoxazolo[4,5-e]azepin-4-yl)acetamide], the IC50 in assay [4], in assay [1] (setting [5]) and in assay [3] (setting [6]) was < 500 nM each time.
On to `Cc1noc2c1-c1cnc(N3CCCC3)cc1C(c1ccc(Cl)cc1)=NC2` [Compound 255, 6-(4-Chlorophenyl)-1-methyl-8-(pyrrolidin-1-yl)-4H-isoxazolo[5,4-c]pyrido[3,4-e]azepine], for which the values for the IC50 in assay [4], in assay [1] (setting [5]) and in assay [3] (setting [6]) were < 500 nM, < 500 nM and 500 to 1000 nM, respectively.
Regarding `Cc1noc2c1-c1nc(N)ccc1C(c1ccc(Cl)cc1)=NC2` [Compound 228, 5-(4-Chlorophenyl)-10-methyl-7H-isoxazolo[5,4-c]pyrido[2,3-e]azepin-2-amine], the IC50 in assay [4], in assay [1] (setting [5]) and in assay [3] (setting [6]) was > 1000 nM throughout.
Turning to `Cc1noc2c1-c1[nH]c(=O)ccc1C(c1ccc(Cl)cc1)=NC2` [Compound 220, 5-(4-Chlorophenyl)-10-methyl-1H-isoxazolo[5,4-c]pyrido[2,3-e]azepin-2(7H)-one], the IC50 in assay [4], in assay [1] (setting [5]) and in assay [3] (setting [6]) was > 1000 nM throughout.
Consider `CC(=O)NC(C[C@@H]1N=C(c2ccc(Cl)cc2)c2ccccc2-c2c(C)noc21)C(F)(F)F` (mixture of isomers) [Compound 244, Mixture of N-((2S)-3-((4S)-6-(4-chlorophenyl)-1-methyl-4H-benzo[c]isoxazolo[4,5-e]azepin-4-yl)-1,1,1-trifluoropropan-2-yl)acetamide and N-((2R)-3-((4S)-6-(4-chlorophenyl)-1-methyl-4H-benzo[c]isoxazolo[4,5-e]azepin-4-yl)-1,1,1-trifluoropropan-2-yl)acetamide], for which the IC50 in assay [4], in assay [1] (setting [5]) and in assay [3] (setting [6]) was > 1000 nM throughout.
Consider `Cc1noc2c1-c1ccc(-c3ccc(C(=O)O)cc3)cc1C(c1ccc(F)cc1)=N[C@H]2CC(N)=O` [Compound 234], for which the IC50 was < 500 nM in assay [4], 500 to 1000 nM in assay [1] (setting [5]) and 500 to 1000 nM in assay [3] (setting [6]).
`Cc1noc2c1-c1ccc(-c3ccc(N)nc3)cc1C(c1ccc(F)cc1)=N[C@H]2CC(N)=O` [Compound 216]: the IC50 in assay [4], in assay [1] (setting [5]) and in assay [3] (setting [6]) was < 500 nM each time.
As for `Cc1noc2c1-c1ccnc(N)c1C(c1ccc(Cl)cc1)=N[C@H]2CC(N)=O` [Compound 222, 2-((4S)-7-Amino-6-(4-chlorophenyl)-1-methyl-4H-isoxazolo[5,4-c]pyrido[4,3-e]azepin-4-yl)acetamide], the IC50 in assay [4], in assay [1] (setting [5]) and in assay [3] (setting [6]) was < 500 nM in each case.
`Cc1noc2c1-c1ccc(-c3ccc(C(=O)O)cc3)cc1C(c1ccc(F)cc1)=N[C@H]2C` [Compound 237]: the IC50 in assay [4], in assay [1] (setting [5]) and in assay [3] (setting [6]) was < 500 nM each time.
As for `Cc1noc2c1-c1ccc(-c3ccc(N)nc3)cc1C(c1ccc(Cl)cc1)=N[C@H]2CC(N)=O` [Compound 213], the IC50 in assay [4], in assay [1] (setting [5]) and in assay [3] (setting [6]) was < 500 nM each time.
With `CNc1ccc2c(n1)C(c1ccc(Cl)cc1)=NCc1onc(C)c1-2` [Compound 241, 6-(4-Chlorophenyl)-N,1-dimethyl-4H-isoxazolo[5,4-c]pyrido[3,2-e]azepin-8-amine], the IC50 in assay [4], in assay [1] (setting [5]) and in assay [3] (setting [6]) was < 500 nM each time.
For `Cc1noc2c1-c1ccc(=O)n(C)c1C(c1ccc(Cl)cc1)=NC2` [Compound 246, 6-(4-Chlorophenyl)-1,7-dimethyl-4H-isoxazolo[5,4-c]pyrido[3,2-e]azepin-8(7H)-one], the IC50 is 500 to 1000 nM in assay [4], > 1000 nM in assay [1] (setting [5]) and > 1000 nM in assay [3] (setting [6]).
As to `CCOC(=O)NC1N=C(c2ccc(Cl)cc2)c2ccccc2-c2c(C)noc21` (stereo not drawn) [Compound 225, ethyl (6-(4-chlorophenyl)-1-methyl-4H-benzo[c]isoxazolo[4,5-e]azepin-4-yl)carbamate], the IC50 in assay [4], in assay [1] (setting [5]) and in assay [3] (setting [6]) was < 500 nM throughout.
Turning to `Cc1noc2c1-c1ccc(Cl)cc1C(c1ccc(F)cc1)=N[C@H]2C` [Compound 230], the IC50 is < 500 nM in assay [4], < 500 nM in assay [1] (setting [5]) and 500 to 1000 nM in assay [3] (setting [6]).
As to `Cc1noc2c1-c1ccc(N)nc1C(c1ccc(Cl)cc1)=NC2` [Compound 257, 6-(4-Chlorophenyl)-1-methyl-4H-isoxazolo[5,4-c]pyrido[3,2-e]azepin-8-amine], the IC50 is < 500 nM in assay [4], 500 to 1000 nM in assay [1] (setting [5]) and > 1000 nM in assay [3] (setting [6]).
Taken in the same sequence, the figures for `Cc1noc2c1-c1ccc(Cl)nc1C(c1ccc(Cl)cc1)=NC2` [Compound 240, 8-Chloro-6-(4-chlorophenyl)-1-methyl-4H-isoxazolo[5,4-c]pyrido[3,2-e]azepine] were > 1000 nM, > 1000 nM and > 1000 nM.
`Cc1noc2c1-c1ccc(-c3ccc(N)nc3)cc1C(c1ccc(F)cc1)=N[C@H]2C` [Compound 231]: the IC50 in assay [4], in assay [1] (setting [5]) and in assay [3] (setting [6]) was < 500 nM each time.

The values above are taken from patent US9522920B2, “Bromodomain inhibitors and uses thereof” (Constellation Pharmaceuticals, Inc., priority 2010, dated 2016).
